Test results: patent US20260306599A1, “TIMP3-DERIVED TEIPP NEOANTIGENS AND USES THEREOF” (priority 2023, published 2026)
Values belong to the compound of their own block, whether it stands above or below them. Residues, ends and D or L forms follow the SMILES beside them. No end group written: not given here.

Tests used:
[1] = system: p124-specific CD8 T cells; experiment: Cross-presentation of synthetic long peptides by monocyte-derived dendritic cells to p124-specific CD8 T cells; format: cell-based, human; conditions: moDC loaded with 10 μM SLP; for T cell activation by cross-presented synthetic long peptide (wild type epitope): FIG. 7; for cross-presentation of synthetic long peptide (V-variant epitope): FIG. 8
Protocol: HLA-A*02:01 positive PBMCs were isolated from buffy-coats from consented donors (Sanquin bloodbank, Amsterdam), using a gradient ficoll layer. PBMCs were incubated with anti-CD14 magnetic beads for 20 min at 4° C. and the CD14 positive monocytes were isolated using magnetic separation columns (miltenyi). CD14+ monocyte were cultured in RPMI medium supplemented with 10% FCS, GM-CSF (800 units/ml), and IL-4 (500 units/ml) for 6 days to generate immature monocyte-derived dendritic cells. On day 6, the immature moDCs were incubated with synthetic long peptide (10 μM, Genscript) for 2h, followed by overnight incubation with LPS (20 ng/ml). Matured and loaded moDCs (30,000 cells) were washed and co-cultured with previously established tetramer positive T cells (50,000 cells) for 16 h. Direct presentation of synthetic long peptides was tested by continuous incubation with TIMP3-specific CD8 T cell bulk for 16 h in the absence of moDC. Cytokine release by T cells was then measured in supernatants by ELISA.
The synthetic long peptide (SLP) platform is highly immunogenic and successfully applied in therapeutic SLP vaccination for HPV-induced cancers (Kenter et al. 2009; van Poelgeest et al. 2016). Therefore, the inventors examined the efficiency of cross-presentation of long versions of the TIMP3-derived signal peptide SLGDWGAEA (SEQ ID NO: 2) in dendritic cells, using natural flanking amino acids extending the amino-terminus, the carboxy-terminus, or both ends (Table 3). Monocyte-derived dendritic cells (moDC) were incubated with these three SLPs (P124 long 1-3; SEQ ID NOs: 22-24), then matured, and used as targets for the p124-specific CD8 T cell culture to assess correct processing and HLA-A2 presentation of the minimal TEIPP epitope. Despite the fact that the c-terminus was an alanine, the TIMP3-derived signal peptide SLGDWGAEA (SEQ ID NO: 2) was cross-presented by DCs from a longer peptide to p124-specific CD8 T cells (FIG. 7).
Therefore, the cross-presentation of the V-variant was evaluated as synthetic long peptide extended with natural flanking amino acids (Table 3). After uptake and processing of the five different variants (P124 long V1-3, V1-4, V1-6, V2 and V3; SEQ ID NOs: 25, 110, 111, 26 and 27), moDCs were co-cultured with the p124-specific T cell cultures and cytokine production was measured (FIG. 8). […] The lack of recognition of DCs not loaded with peptide reiterates that moDCs, despite the high expression of TIMP3 (FIG. 4), are not recognized.

TAP-negative tumor cells = experiment: Preferential recognition of TAP-negative over TAP-positive tumor cells by peptide-stimulated T cell cultures (TEIPP screen); format: cell-based, human; conditions: TAP-negative vs TAP-positive tumor cells
Protocol: TCR-transduced or bulk-cultured TEIPP T cells were tested for their ability to selectively recognize the indicated TEIPP epitope presented on TAP impaired tumors by co-culturing them for 18 hours with wild-type (wt), TAP-KO and/or TAP/TIMP3-KO tumor cells at a 5-to-1 target-to-T cell ratio, after which supernatants were harvested and analyzed for cytokine production by GM-CSF, CCL4 and/or IFNg ELISA. Unstimulated and peptide-stimulated T cells were used as negative and positive controls. For some experiments, also endogenous TEIPP antigen-expressing healthy cells such as Epstein-Barr virus (EBV) transformed B-cells, monocytes or monocyte-derived dendritic cells were included as additional controls. Test were performed in triplo in 96 well round bottom plates at 1:1 target to effector ratio.
36 peptides (designated 101 to 136) were selected for their capacity to activate CD8+ T cells present in peripheral blood mononuclear cells (PBMC) of maximal 5 healthy donors, following the protocol described earlier (Marnjt et al., 2018). […] After an in vitro expansion and enrichment of the responding T cell cultures, 18 of the 21 cases could be tested for their capacity to preferentially recognize TAP-negative tumor cells over TAP-positive tumor cells. […] These cultures were stimulated with peptide 105, 113, or 124. […]

[2] = system: SLGDWGAEA-specific T cell cultures; experiment: Tetramer staining of peptide 124-specific T cell cultures; format: binding, human; conditions: three T cell cultures, donors 2028, 4409, 2752
Excerpt: T cell cultures of donors 2028, 4409 and 2752 were stimulated with the peptide SLGDWGAEA (SEQ ID NO:2) and analyzed via flow cytometry for the percentage of CD8+ T cells and the percentage therein of CD8+ T cells that stained positive with the HLA-A*02:01 tetramer presenting peptide SLGDWGAEA. All three SLGDWGAEA-specific T cell cultures comprise more than 97% CD8+ T cells that stained for more than 99% positive with SLGDVGAEA-loaded HLA-A*02:01 tetramers (indicated by HLA-A*02:01: SLGDWGAEA™ in FIG. 1). These SLGDWGAEA-specific T cells were used in subsequent experiments described below. In the present application and figures, peptide SLGDWGAEA is also referred to as ‘peptide 124’ or ‘p124’.
Buffy coats from healthy donors were obtained from Sanquin (Sanquin blood facility). Informed consent was given in writing by all participants. PBMCs were isolated using a ficoll gradient (density 1.077 g/ml). Approximately 500×10^6 PBMCs were incubated with PE-labeled pHLA-A*02:01 tetramers (Flex-T™ HLA-A*02:01 Monomer UVX van Biolegend) for 30 min at RT. Anti-PE magnetic beads (MACS) were used to pull out pHLA-A*02:01 tetramer-positive cells over a MACS LS column as instructed by the manufacturer (Miltenyi Biotech). T cells were cultured in complete IMDM containing 10% human serum (Sanquin blood facility) and 100 U/ml IL-2 (Proleukine; Novartis). […]

[3] = system: CD8+ T cells present in peripheral blood mononuclear cells (PBMC); experiment: In vitro expansion of peptide multimer-positive CD8+ T cells from PBMC of healthy donors; format: cell-based, human
Protocol: Buffy coats from healthy donors were obtained from Sanquin (Sanquin blood facility). Informed consent was given in writing by all participants. PBMCs were isolated using a ficoll gradient (density 1.077 g/ml). Approximately 500×10^6 PBMCs were incubated with PE-labeled pHLA-A*02:01 tetramers (Flex-T™ HLA-A*02:01 Monomer UVX van Biolegend) for 30 min at RT. Anti-PE magnetic beads (MACS) were used to pull out pHLA-A*02:01 tetramer-positive cells over a MACS LS column as instructed by the manufacturer (Miltenyi Biotech). T cells were cultured in complete IMDM containing 10% human serum (Sanquin blood facility) and 100 U/ml IL-2 (Proleukine; Novartis). Bulk T cells were stimulated every 2 weeks with a mixture of T cells (106), 1 μg/ml synthetic peptide (SLGDWGAEA (SEQ ID NO: 2) (TIMP3)), irradiated PBMCs (10 cells, 50 Gray), and EBV-JY (10W cells, 75 Gray) in complete T cell culture medium supplemented with 100 U/ml IL-2 in 24-well plates (Costar). Culture medium was replenished every 2-3 d with fresh complete T cell medium.
36 peptides (designated 101 to 136) were selected for their capacity to activate CD8+ T cells present in peripheral blood mononuclear cells (PBMC) of maximal 5 healthy donors, following the protocol described earlier (Marnjt et al., 2018). […]

[4] = system: p124-specific CD8 T cells; experiment: Stimulation of p124-specific T cells by exogenous short p124 peptide; format: cell-based, human; conditions: FIG. 7
Protocol: The peptide 124-specific T-cell culture from donor 4409 was stimulated with HLA-A*0201 matched monocyte-derived dendritic cells (MoDCs) from three different donors (indicated by MoDCs 0559, MoDC 4553 and MoDC 7401), which were loaded with (10 uM for 20-24h) the indicated synthetic long peptides (SLP) (“p124 long 1” (SEQ ID NO: 22), (“p124 long 2” (SEQ ID NO: 23), (“p124 long 3” (SEQ ID NO: 24)) or with no peptide as background control. The T cell culture incubated with 25 ug/ml the p124-peptide SLGDWGAEA served as positive control for reactivity (indicated by “T cells+p124”). The amount of interferon-gamma (IFNy) or GM-CSF produced is shown on the y-axis in pg/ml.
The synthetic long peptide (SLP) platform is highly immunogenic and successfully applied in therapeutic SLP vaccination for HPV-induced cancers (Kenter et al. 2009; van Poelgeest et al. 2016). Therefore, the inventors examined the efficiency of cross-presentation of long versions of the TIMP3-derived signal peptide SLGDWGAEA (SEQ ID NO: 2) in dendritic cells, using natural flanking amino acids extending the amino-terminus, the carboxy-terminus, or both ends (Table 3). […]

[5] = system: SLGDWGAEA-specific T cells; experiment: Interferon-gamma production of SLGDWGAEA-specific T cells stimulated with variant peptides pulsed on HLA-A*0201 positive EBV transformed B-cells; format: cell-based, human; conditions: for Recognition (IC50): concentration of peptide for half maximal interferon-gamma production of SLGDWGAEA-specific T cells; for response of peptide 124-specific CD8+ T cell culture to variant peptide: short minimal peptides exogenously pulsed on HLA-A*0201 positive EBV transformed B-cells
Excerpt: The inventors investigated if exchanges into another amino acids would result in a more efficiently processed epitope. First, they examined whether these substitutions would interfere with T cell receptor interaction. The inventors exogenously pulsed the short minimal peptides of Table 4 with the C-terminal valine (V), leucine (L), isoleucine (I), or methionine (M) on HLA-A*0201 positive EBV transformed B-cells and measured the activation of the peptide 124-specific CD8+ T cell culture.

Compound: CC[C@H](C)[C@H](N)C(=O)N[C@H](C(=O)N[C@@H](CC(C)C)C(=O)N[C@@H](CC(C)C)C(=O)NCC(=O)N[C@@H](CO)C(=O)N[C@@H](Cc1c[nH]c2ccccc12)C(=O)N[C@@H](CO)C(=O)N[C@@H](CC(C)C)C(=O)NCC(=O)N[C@@H](CC(=O)O)C(=O)N[C@@H](Cc1c[nH]c2ccccc12)C(=O)NCC(=O)N[C@@H](C)C(=O)N[C@@H](CCC(=O)O)C(=O)N[C@@H](C)C(=O)N[C@@H](CS)C(=O)N[C@H](C(=O)N[C@@H](CS)C(=O)N[C@@H](CO)C(=O)N1CCC[C@H]1C(=O)N[C@@H](CO)C(=O)N[C@@H](Cc1c[nH]cn1)C(=O)O)[C@@H](C)O)C(C)C [P124 long 2] (H-IVLLGSWSLGDWGAEACTCSPSH-OH)
- T cell activation by cross-presented synthetic long peptide (wild type epitope) [1]: the T cells were activated

Compound: CC(C)C[C@H](NC(=O)[C@@H](N)CO)C(=O)NCC(=O)N[C@@H](CC(=O)O)C(=O)N[C@@H](Cc1c[nH]c2ccccc12)C(=O)NCC(=O)N[C@@H](C)C(=O)N[C@@H](CCC(=O)O)C(=O)N[C@@H](C)C(=O)N[C@@H](CS)C(=O)N[C@H](C(=O)N[C@@H](CS)C(=O)N[C@@H](CO)C(=O)N1CCC[C@H]1C(=O)N[C@@H](CO)C(=O)N[C@@H](Cc1c[nH]cn1)C(=O)N1CCC[C@H]1C(=O)N[C@@H](CCC(N)=O)C(=O)N[C@@H](CC(=O)O)C(=O)N[C@@H](C)C(=O)N[C@@H](Cc1ccccc1)C(=O)N[C@@H](CS)C(=O)N[C@@H](CC(N)=O)C(=O)O)[C@@H](C)O [P124 long 3] (H-SLGDWGAEACTCSPSHPQDAFCN-OH)
- T cell activation by cross-presented synthetic long peptide (wild type epitope) [1]: No recognition was observed

Compound: CC[C@H](C)[C@H](N)C(=O)N[C@H](C(=O)N[C@@H](CC(C)C)C(=O)N[C@@H](CC(C)C)C(=O)NCC(=O)N[C@@H](CO)C(=O)N[C@@H](Cc1c[nH]c2ccccc12)C(=O)N[C@@H](CO)C(=O)N[C@@H](CC(C)C)C(=O)NCC(=O)N[C@@H](CC(=O)O)C(=O)N[C@@H](Cc1c[nH]c2ccccc12)C(=O)NCC(=O)N[C@@H](C)C(=O)N[C@@H](CCC(=O)O)C(=O)N[C@H](C(=O)N[C@@H](CS)C(=O)N[C@H](C(=O)N[C@@H](CS)C(=O)N[C@@H](CO)C(=O)N1CCC[C@H]1C(=O)N[C@@H](CO)C(=O)N[C@@H](Cc1c[nH]cn1)C(=O)O)[C@@H](C)O)C(C)C)C(C)C [P124 long V2] (H-IVLLGSWSLGDWGAEVCTCSPSH-OH)
- cross-presentation of synthetic long peptide (V-variant epitope) [1]: cross-presentation was lost

Compound: FLGPWPAAS [peptide 105, FLGPWPAAS, reference compound]
- recognition pattern of the stimulated T cell culture (classified as TEIPP) (TAP-negative tumor cells): consistent recognition pattern

Compound: LGLIVLLGSWSLGDWGAEV [P124 long V1-4, LGLIVLLGSWSLGDWGAEV]
- cross-presentation of synthetic long peptide (V-variant epitope) [1]: enhanced T cell stimulation and more efficient cross-presentation

Compound: LIVLLGSWSLGDWGAEV [P124 long V1-6, LIVLLGSWSLGDWGAEV]
- cross-presentation of synthetic long peptide (V-variant epitope) [1]: enhanced T cell stimulation and more efficient cross-presentation

Compound: MTPWLGLIVLLGSWSLGDWGAEA [P124 long 1]
- T cell activation by cross-presented synthetic long peptide (wild type epitope) [1]: the T cells were activated

- Recognition (IC50) ([5]; Table 1): 0.092525 µg/mL
- Recognition (IC50) ([5]; Table 4): 0.092525 µg/mL
Compound: SLGDWGAEA [SLGDWGAEA]
- CD8+ T cells stained positive with SLGDWGAEA-loaded HLA-A*02:01 tetramers [2]: more than 99%
- CD8+ T cells stained positive with SLGDWGAEA-loaded HLA-A*02:01 tetramers ([2]; listed as peptide 124): > 99%
- donors with outgrowth of p124-specific T cells [3]: 10 donors
- T cell stimulation by exogenous pulsing of short peptide [4]: stimulated the T cells
- recognition pattern of the stimulated T cell culture (classified as TEIPP) (TAP-negative tumor cells): consistent recognition pattern

- Recognition (IC50) ([5]; Table 1): 0.284929 µg/mL
- Recognition (IC50) ([5]; Table 4): 0.284929 µg/mL
Compound: SLGDWGAEI [SLGDWGAEI]

Compound: SLGDWGAEL [SLGDWGAEL]
- response of peptide 124-specific CD8+ T cell culture to variant peptide [5]: No response was observed

Compound: SLGDWGAEM [SLGDWGAEM]
- response of peptide 124-specific CD8+ T cell culture to variant peptide [5]: No response was observed

- Recognition (IC50) ([5]; Table 1): 0.001471 µg/mL
- Recognition (IC50) ([5]; Table 4): 0.001471 µg/mL
Compound: SLGDWGAEV [SLGDWGAEV]
- improvement of the stimulation of p124-specific T cells vs. c-terminal alanine peptide ([5]; specifically at the lower peptide concentration range): 61 fold

Compound: WLGLIVLLGSWSLGDWGAEV [P124 long V1-3]
- cross-presentation of synthetic long peptide (V-variant epitope) [1]: less optimal
